In patent US5468730A, “Methods for the treatment of non-IgE-mediated diseases” (Dura Pharmaceuticals, Inc., priority 1992, dated 1995):
“And” between values parts separate entries of the source, which are not always exact repeats. Equal values may be shown once. No end group written: not given here.

What was measured:
[1] = test system: sheep erythrocyte (SRBC)-induced DTH reactions; experiment: Sheep erythrocyte (SRBC)-induced DTH footpad swelling in mice; type: in vivo, female Balb/C mice; conditions: indomethacin 1.0 mg/kg on day 4 (positive control); footpad volume about 24 h after challenge
[2] = test system: Tetanus toxoid-induced DTH reactions; parameters: species or system female Balb/C mice; conditions: mouse, in vivo
[3] = test system: carrageenan-induced inflammation; experiment: Carrageenan-induced footpad edema in mice; type: in vivo, female Balb/C mice
Procedure: In order to examine the ability of pentigetide to inhibit carrageenan-induced inflammation, female Balb/C mice were injected with 0.025 ml of 1.0% carrageenan solution (type 1x carrageenan: Sigma No. C-1013, Lot No. 86F-0698) or saline in the right hind footpad 5 minutes after intravenous tail vein injection of 0.2 ml pentigetide (1.0 mg/kg) or saline solution.

[4] = test system: immune complex-induced colitis; experiment: Immune complex-mediated ulcerative colitis model (formalin + IgG immune complexes) in mice; type: in vivo, male BKA mice (outbred Swiss albino)
Procedure: A mouse model of intestinal inflammation was employed wherein the efficacy of pentigetide in reducing inflammation induced by formalin and complement-fixing IgG immune complexes was measured. This model is particularly useful as a model of human ulcerative colitis and shares many clinical and histological functions of the human disease including sensitivity to glucocorticoids, sulfasalazine and 5-aminosalicylic acid (see L. P. Walsh, et al., British J. Pharm. 91:294 (1987); A. Blackham, et al., British J. Pharm. 89:694 (1986); L. D. Walsh and I. J. Zeitlin, British J. Pharm. 92:741 (1987)). The mouse model of intestinal inflammation used in these studies is induced by the exposure of the animals to chemicals which are known to trigger inflammatory processes in both animals and humans. […]
Colonic tissue water content was determined by tissue weight loss on drying of colonic tissues. […]
The response to immune complex alone was determined quantitatively by subtracting the mean value in group B from the mean value in group C. An estimate of the percentage reduction in this response produced by the drug was calculated as: [formula] […] Statistical significance was determined using the non-parametric Mann-Whitney U-test. […]

[5] = test system: binding of IgE to lymphoblastoid tissue culture cells; conditions: two trials; reported in U.S. Pat. No. 4,161,522; cited from earlier work
[6] = test system: chronic idiopathic urticaria (non-IgE-mediated); conditions: human, in vivo

## COc1ccc2c(c1)c(CC(=O)O)c(C)n2C(=O)c1ccc(Cl)cc1 [Indomethacin, indomethacin]
[1]
  inhibition: 43%
[2]
  inhibition: 45%
[3]; 1.0 hours after carrageenan injection, indomethacin 10 mg/kg s.c. 24 hours prior to carrageenan
  Percent Inhibition: -35%
[3]; 2.0 hours after carrageenan injection, indomethacin 10 mg/kg s.c.
  Percent Inhibition: -60%
[3]; 4.0 hours after carrageenan injection, indomethacin 10 mg/kg s.c.
  Percent Inhibition: -39%
[3]; 6.0 hours after carrageenan injection, indomethacin 10 mg/kg s.c.
  Percent Inhibition: -47%

## C[C@]12C=CC(=O)C=C1CC[C@@H]1[C@@H]2[C@@H](O)C[C@@]2(C)[C@H]1CC[C@]2(O)C(=O)CO [prednisolone]
[4]; prednisolone 5.0 mg/kg i.p. for three days prior to inflammation induction and daily thereafter, p<0.01
  reduction of colonic edema: 86.2%
[4]; prednisolone 5.0 mg/kg i.p., p<0.001
  reduction of colonic edema (printed in the colitic sign score paragraph): 93.8%

## Asn-Ser-Asn-Pro-Arg (NSNPR; printed: Asn-Ser-Asn-Pro-Arg) [peptide reported in U.S. Pat. No. 4,161,522]
[5]
  activity: ability to block binding of IgE to lymphoblastoid tissue culture cells: lower activity

## Asn-Ser-Asp-Pro-Arg (NSDPR; printed: Asn-Ser-Asp-Pro-Arg) [peptide reported in U.S. Pat. No. 4,161,522]
[5]
  activity: ability to block binding of IgE to lymphoblastoid tissue culture cells: lower activity

## DSDPR [pentigetide, Asp-Ser-Asp-Pro-Arg]
[6]
  side effects from the treatment: did not experience any side effects

## [-Cys-Ala-Asn-Ser-Asn-Pro-Arg]2
[5]
  activity: ability to block binding of IgE to lymphoblastoid tissue culture cells: 9% and 12%
